Where “and” joins values, the source holds several entries; their conditions need not be identical. Equal values may be shown once. Read-outs that look alike come from different tables or passages of the source.
What was measured:
[1] = system: papillary muscle isolated from the rabbit heart; assay: cardiac activity on isolated papillary muscle of rabbit heart; conditions: for activation at 100 µg/mL / activation at 10 µg/mL: Oryctolagus cuniculus, read-out: percentage increase of the tension measured
Source text: This has been shown by the method employing the papillary muscle isolated from the rabbit heart, according to the method of H. G. Schoepke and F. E. Shiddeman, J. Pharmacol. Exptl. Therap. 133,(1961), 171.
The reactivity of various compounds of general formula (I) after each experiment is checked against theophylline. Table IV gives some of the results observed, expressed as a percentage increase of the tension measured.

rats = assay: active avoidance test, memory retention (paw pressure withdrawal) in rats; assay type: in vivo, rat; conditions: for minimal effective dose: sc, read-out: Active dose (minimum dose which reduces the stimulus to below 11 graduations)
Source text: (A) The action on mnemic processes is first shown by the ability of the compounds to improve a type of memory retention in rats. The principle of the active avoidance test (see M. GREINDL and S. PREAT, Arch. Int. Pharmacodyn. Therap. 223,(1976),(1),168-171) developed in our laboratories and used for this purpose may be described as follows: the reaction of withdrawal of a rat's paw when subjected to an increasing and measured pressure is observed. The pressure at which the withdrawal reaction takes place is called the reaction threshold. This threshold is expressed by the number of graduations of the scale of the apparatus used (Analgesy meter UGO BASILE - Milano) and thus corresponds to the minimum pressure which brings about withdrawal when applied to the animal's paw. It is read directly from the scale of the apparatus used.
Inversely, animals treated with a substance having a positive effect on the mnemic processes (for example, piracetam) show a significant degree of retention: the stimulus at which the rats react by a reflex of avoidance is statistically lower than that of the control animals. A minimum of 20 rats are used per test (10 treated rats and 10 control rats) and the active dose is defined as the minimum dose which reduces the stimulus to below 11 graduations.
Subcutaneous administration of compounds of general formula (I), namely compounds A, G, H, I, J, K, L, N, O, P, Q, R, V, W, give, under these conditions, the effects indicated in Table I below.

mice = assay: protection against aggressions of the hypoxic type (lethality induced by oxydipentonium chloride) in mice; assay type: in vivo; conditions: 1 h, mouse, intraperitoneal, one hour before curarizer, read-out: Proportion of survivors, treated animals; for responders at 100 µM, 100 µmol/kg: 0.1 mM/kg (F 24, G 25.5, H 24, I 30, J 21, K 23, L 23 mg/kg), control 1/10, F 0/10; for responders at 320 µM, 320 µmol/kg: 0.32 mM/kg (A 64, I 95, J 68, Piracetam 45 mg/kg), control 1/10, Piracetam 0/10; for responders at 10 µM, 10 µmol/kg: 0.01 mM/kg (B 2.6, G 2.6, H 2.4 mg/kg), control B 1/10, G 1/10, H 2/10
Experimental: Protection against aggressions of the hypoxic type is shown by a reduction of the lethality induced by a curarizer, the duration of action of which is short, namely oxydipentonium chloride (Brevatonal). At the doses used, this curarizer brings about a respiratory depression which, in turn, brings about a hypoxi-hypercapnic syndrome. A compound capable of protecting the brain during this brief period of hypoxia ensures survival. The compounds are administered to groups of 10 mice one hour before the injection of the curarizer; in a parallel test, a control group of 10 mice are given physiological salt solution before the curarizer. This test has also been developed in our laboratories (see, for the principle of this test, S. LEVIS et al.; Arch. Int. Pharmacodyn. Therap, 93,(1953),1,46-54).
Intraperitoneal administration of compounds of general formula (I), namely, products A, B, F, G, H, I, J, K, L, gives the results shown in Table III: […]

toxicity, LD50 in rat = conditions: in vivo
Source text: The tested compounds have a remarkably low toxicity. Table V gives the toxicities, after intravenous administration, of some of the compounds of the present invention: […]

rat = assay: reduction of the spinal fixation time in rats; assay type: in vivo; conditions: intraperitoneal, spinal section after 35 minutes
Source text: (B) The action on mnemic processes is also shown by the reduction of the spinal fixation time, a test which has been described in literature (see C. GIURGEA & F. MOURAVIEFF-LESUISSE, Arch. Int. Pharmacodyn. 191/2,(1971),279) as an elementary memory model and which provides pharmacological reactivity in good correlation with clinical physiopathology. In the rat, after unilateral section of the cerebellum, there is a postural asymmetry of the hind paws. This asymmetry may persist, even after spinal section, if the animal has passed a sufficient period of time in this position. This time, which is called the spinal fixation time, is 45 minutes under the experimental conditions applied here.
On the other hand, if spinal section is performed before the expiry of this period of time, for example 35 minutes after the onset of the asymmetry, the latter disappears.
No animal treated with placebos retains the asymmetry under these conditions.
Inversely, any product which allows the rats to retain the asymmetry (thus effecting spinal fixation) when the spinal section is performed after 35 minutes, is considered to be active.
Intraperitoneal administration of compound A gives rise to the effects described in Table II. By "number of animals" is to be understood the number of animals which responded positively to the test, in relation to the number of animals tested at the indicated dose: […]

| Compound | minimal effective dose (rats; Rattus norvegicus, 24 h) | activity compared with piracetam in the active avoidance test (rats; rat, subcutaneous) | responders at 100 µM, 100 µmol/kg (mice) [%] | LD50 (toxicity, LD50 in rat; intravenous) | other results |
| --- | --- | --- | --- | --- | --- |
| CN(CC(=O)Nc1ccccc1)C(=O)CN1CCCC1=O [Compound E, 2-(N-Methyl-2-oxo-1-pyrrolidineacetamido)-N-phenylacetamide] | – | – | – | – | activation at 100 µg/mL [1]: 22% |
| NC(=O)C(NC(=O)CN1CCCC1=O)c1ccccc1 (centres unmarked) [Compound R, 2-(2-oxo-1-pyrrolidineacetamido)-2-phenylacetamide] | 2.75 mg/kg and 10 µmol/kg | superior to that of piracetam | – | – | – |
| CC(NC(=O)CN1CCCC1=O)C(N)=O (centres unmarked) [Compound Q, 2-methyl-2-(2-oxo-1-pyrrolidineacetamido)-acetamide] | 2.13 mg/kg and 10 µmol/kg | superior to that of piracetam | – | – | – |
| NC(=O)CNC(=O)C1(N2CCCC2=O)CC1 [Compound L, 2-[1-(2-oxo-pyrrolidino)-cyclopropanecarboxamido]-acetamide] | 0.23 mg/kg and 1 µmol/kg | superior to that of piracetam | 80 | – | – |
| CN(C)C(=O)CN(C)C(=O)CN1CCCC1=O [Compound P, N,N-dimethyl-2-(N-methyl-2-oxo-1-pyrrolidineacetamido)-acetamide] | 2.41 mg/kg and 10 µmol/kg | superior to that of piracetam | – | – | – |
| CCC(C(=O)NCC(N)=O)N1CCCC1=O (stereo not drawn) [Compound K, 2-(alpha-ethyl-2-oxo-1-pyrrolidineacetamido)-acetamide] | 4.54 mg/kg and 20 µmol/kg | superior to that of piracetam | 70 | > 2500 µmol/kg and > 568 mg/kg | activation at 100 µg/mL [1]: 44% |
| CN(CC(N)=O)C(=O)CN1CCCC1=O [Compound N, 2-(N-methyl-2-oxo-1-pyrrolidineacetamido)-acetamide] | 2.13 mg/kg and 10 µmol/kg | superior to that of piracetam | – | – | – |
| CC(C(=O)NCC(N)=O)N1CCCC1=O (stereo not drawn) [Compound J, 2-(alpha-methyl-2-oxo-1-pyrrolidineacetamido)-acetamide] | 0.21 mg/kg and 1 µmol/kg | superior to that of piracetam | 60 | > 2600 µmol/kg and > 554 mg/kg | responders at 320 µM, 320 µmol/kg (mice): 100% |
| NC(=O)CNC(=O)CN1CCCC1=O [A, 2-(2-Oxo-1-pyrrolidineacetamido)-acetamide] | 0.4 mg/kg and 2 µmol/kg | superior to that of piracetam | – | > 5000 µmol/kg and > 1000 mg/kg | responders at 320 µM, 320 µmol/kg (mice): 70%; Number of animals which responded positively / number tested (rat; 6.4 mg/kg (0.032 mM/kg)): 3/7; Number of animals which responded positively / number tested (rat; 20.0 mg/kg (0.1 mM/kg)): 4/5 |
| CCCCC(C(=O)NCC(N)=O)N1CCCC1=O (stereo not drawn) [Compound W, 2-(alpha-n-butyl-2-oxo-1-pyrrolidineacetamido)-acetamide] | 2.55 mg/kg and 10 µmol/kg | superior to that of piracetam | – | – | – |
| CCCCC1CCN(CC(=O)NCC(N)=O)C1=O (centres unmarked) [Compound X, 2-(3-n-butyl-2-oxo-1-pyrrolidineacetamido)-acetamide] | – | – | – | – | activation at 100 µg/mL [1]: 25% |
| CC(C)NC(=O)CNC(=O)CN1CCCC1=O [Compound F, N-isopropyl-2-(2-oxo-1-pyrrolidineacetamido)-acetamide] | – | – | 40 | > 3000 µmol/kg and > 723 mg/kg | – |
| CCC(C(=O)NCC(N)=O)N1C(=O)CCC1(C)C (stereo not drawn) [Compound G, 2-(alpha-ethyl-5,5-dimethyl-2-oxo-1-pyrrolidineacetamido)-acetamide] | 0.51 mg/kg and 2 µmol/kg | superior to that of piracetam | 60 | > 2800 µmol/kg and > 714 mg/kg | responders at 10 µM, 10 µmol/kg (mice): 40% |
| CN(C)C(=O)CNC(=O)CN1CCCC1=O [Compound M, N,N-ddimethyl-2-(2-oxo-1-pyrrolidineacetamido)-acetamide] | – | – | – | – | activation at 10 µg/mL [1]: 10% |
| CC(C(=O)NCC(N)=O)N1C(=O)CCC1(C)C (stereo not drawn) [Compound H, 2-(alpha,5,5-trimethyl-2-oxo-1-pyrrolidineacetamido)-acetamide] | 0.0024 mg/kg and 0.01 µmol/kg | superior to that of piracetam | 100 | > 3100 µmol/kg and > 747 mg/kg | responders at 10 µM, 10 µmol/kg (mice): 60%; activation at 10 µg/mL [1]: 10%; action against anoxia ([1]; same test (isolated papillary muscle, rabbit heart)): protective action against anoxia |
| CCCNC(=O)CNC(=O)C(CC)N1C(=O)CCC1(C)C (stereo not drawn) [Compound I, 2-(alpha-ethyl-5,5-dimethyl-2-oxo-1-pyrrolidineacetamido)-N-propylacetamide] | 5.94 mg/kg and 20 µmol/kg | superior to that of piracetam | 50 | – | responders at 320 µM, 320 µmol/kg (mice): 80%; LD50 (toxicity, LD50 in rat; ip, intraperitoneal): > 2500 µmol/kg and > 743 mg/kg |
| CNC(=O)CN(C)C(=O)CN1CCCC1=O [Compound O, N-methyl-2-(N-methyl-2-oxo-1-pyrrolidineacetamido)-acetamide] | 2.27 mg/kg and 10 µmol/kg | superior to that of piracetam | – | – | – |
| Cn1c(=O)c2[nH]cnc2n(C)c1=O [Theophylline, reference compound] | – | – | – | – | activation at 100 µg/mL ([1]; 100 μg/ml): 38% |
| CCCCNC(=O)CNC(=O)CN1CCCC1=O [Compound B, N-n-Butyl-2-(2-oxo-1-pyrrolidineacetamido)-acetamide] | – | – | – | > 4000 µmol/kg and > 1020 mg/kg | responders at 10 µM, 10 µmol/kg (mice): 60%; responders at 32 µM, 8.2 mg/kg (mice; ip, 0.032 mM/kg (B 8.2 mg/kg), control 1/10): 80% |
| NC(=O)CNC(=O)CN1CCCCCC1=O [Compound V, 2-(hexahydro-2-oxo-1H-azepine-1-acetamido)-acetamide] | – | superior to that of piracetam | – | – | minimal effective dose (rats; rat, subcutaneous, tested 24 hours later): 2.27 mg/kg and 10 µmol/kg |

Source: patent US4162325A, “N-substituted lactams” (UCB, Societe Anonyme, priority 1976, dated 1979)
